According to patent US11447493B2 (Kinnate Biopharma Inc., priority 2018, dated 2022):

Experiments:
Experiment in all cases: Radiometric protein kinase assay (33PanQinase), Assay Condition A (thiol containing)
Assay type in all cases: biochemical
CDK12 wt/CycK = CDK12 wt/CycK (Homo sapiens (Human), UniProt Q9NYV4); settings: thiol containing (1.2 mM DTT), ATP 0.3 μM
Protocol: (§1) The IC50 profile of test compounds was determined using three protein kinases.
(§2) The compounds were provided as pre-weighed powders in vials. The compounds were dissolved to 1×10^−02M by adding DMSO. 100 μl of each of the resulting stock solutions were transferred into column 2 of four 96 well “master plates”.
(§3) Prior to testing, the 1×10^−02M stock solutions in column 2 of the master plates were subjected to a serial, semi-logarithmic dilution using 100% DMSO as a solvent. […] Column 1 and 7 were filled with 100% DMSO as controls. Subsequently, 2×10 μl from each well of the serial diluted copy plates were aliquoted with a 96 channel pipettor into two identical sets of “compound dilution plates”.
(§4) In the process, 90 μl H2O were added to each well of a set of compound dilution plates. To minimize potential precipitation, the H2O was added to each plate only a few minutes before the transfer of the compound solutions into the assay plates. Each plate was shaken thoroughly, resulting in a “compound dilution plate/10% DMSO”.
(§5) For the assays, 5 μl solution from each well of the compound dilution plates/10% DMSO were transferred into the assay plates. The final volume of the assay was 50 μl. All compounds were tested at 10 final assay concentrations in the range from 1×10^−04M to 3×10^−09M, in singlicate. The final DMSO concentration in the reaction cocktails was 1% in all cases.
(§6) All protein kinases were expressed in Sf9 insect cells or in E. coli as recombinant GST-fusion proteins or His-tagged proteins, either as full-length or enzymatically active fragments. All kinases were produced from human cDNAs and purified by either GSH-affinity chromatography or immobilized metal. Affinity tags were removed from a number of kinases during purification. The purity of the protein kinases was examined by SDS-PAGE/Coomassie staining, the identity was checked by mass spectroscopy.
(§7) A radiometric protein kinase assay (^33PanQinase® Activity Assay) was used for measuring the kinase activity of the three protein kinases. All kinase assays were performed in 96-well FlashPlates™ from PerkinElmer (Boston, Mass., USA) in a 50 μl reaction volume. The reaction cocktail was pipetted in four steps in the following order: • 20 μl of assay buffer (standard buffer) • 5 μl of ATP solution (in H2O) • 5 μl of test compound (in 10% DMSO) • 20 μl enzyme/substrate mix
(§8) The reaction cocktails were incubated at 30° C. for 60 minutes. The reaction was stopped with 50 μl of 2% (v/v) H3PO4, plates were aspirated and washed two times with 200 μl 0.9% (w/v) NaCl. Incorporation of ^33Pi was determined with a microplate scintillation counter (Microbeta, Wallac). All assays were performed with a BeckmanCoulter/SAGIAN™ Core System.
(§9) The median value of the counts in column 1 (n=8) of each assay plate was defined as “low control”. This value reflects unspecific binding of radioactivity to the plate in the absence of a protein kinase but in the presence of the substrate. The median value of the counts in column 7 of each assay plate (n=8) was taken as the “high control”, i.e. full activity in the absence of any inhibitor. The difference between high and low control was taken as 100% activity.
(§10) As part of the data evaluation the low control value from a particular plate was subtracted from the high control value as well as from all 80 “compound values” of the corresponding plate. The residual activity (in %) for each well of a particular plate was calculated by using the following formula: Res. Activity (%)=100×[(cpm of compound−low control)/(high control−low control)]
(§11) The residual activities for each concentration and the compound IC50 values were calculated using Quattro Workflow V3.1.1 (Quattro Research GmbH, Munich, Germany). […] The fitting method used was a least-squares fit.

CDK2/CycA2 = CDK2/CycA2 (Homo sapiens (Human), UniProt P24941); settings: thiol containing (1.2 mM DTT), ATP 0.3 μM
Protocol: as §1, §2, §3, §4, §5, §6, §7, §8, §9, §10, §11

CDK7/CycH/MAT1 = CDK7/CycH/MAT1 (Homo sapiens (Human), UniProt P50613); settings: thiol containing (1.2 mM DTT), ATP 3.0 μM
Chain of CDK7/CycH/MAT1 (P50613 whole entry): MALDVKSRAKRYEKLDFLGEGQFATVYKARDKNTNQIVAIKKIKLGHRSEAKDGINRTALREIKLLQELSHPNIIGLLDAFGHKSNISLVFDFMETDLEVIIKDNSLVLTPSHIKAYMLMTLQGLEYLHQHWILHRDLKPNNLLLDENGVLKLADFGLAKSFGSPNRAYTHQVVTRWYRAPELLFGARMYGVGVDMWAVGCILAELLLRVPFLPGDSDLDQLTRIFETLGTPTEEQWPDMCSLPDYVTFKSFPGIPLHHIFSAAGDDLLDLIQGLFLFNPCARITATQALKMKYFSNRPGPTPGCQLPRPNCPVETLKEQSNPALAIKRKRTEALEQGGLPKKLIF
Chain of CDK7/CycH/MAT1 (P51946 whole entry partner): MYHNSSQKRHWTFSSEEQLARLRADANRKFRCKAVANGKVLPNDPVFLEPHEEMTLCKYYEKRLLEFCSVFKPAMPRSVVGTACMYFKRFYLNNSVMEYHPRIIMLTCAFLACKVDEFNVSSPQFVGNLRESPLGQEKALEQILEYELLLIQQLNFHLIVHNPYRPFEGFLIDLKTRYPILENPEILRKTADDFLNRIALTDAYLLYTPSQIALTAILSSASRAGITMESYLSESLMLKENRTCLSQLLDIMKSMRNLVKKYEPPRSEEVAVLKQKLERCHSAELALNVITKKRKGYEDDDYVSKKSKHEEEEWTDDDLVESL
Chain of CDK7/CycH/MAT1 (P51948 whole entry partner): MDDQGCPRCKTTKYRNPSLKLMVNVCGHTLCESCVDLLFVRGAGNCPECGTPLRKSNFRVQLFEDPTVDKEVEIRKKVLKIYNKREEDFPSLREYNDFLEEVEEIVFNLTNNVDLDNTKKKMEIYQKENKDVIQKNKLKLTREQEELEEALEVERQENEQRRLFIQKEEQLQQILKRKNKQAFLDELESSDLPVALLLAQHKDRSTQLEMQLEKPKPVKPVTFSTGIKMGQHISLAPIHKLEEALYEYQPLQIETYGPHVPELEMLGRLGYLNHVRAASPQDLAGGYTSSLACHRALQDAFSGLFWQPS
Protocol: as §1, §2, §3, §4, §5, §6, §7, §8, §9, §10, §11

Chain of CDK12 wt/CycK (Q9NYV4 whole entry): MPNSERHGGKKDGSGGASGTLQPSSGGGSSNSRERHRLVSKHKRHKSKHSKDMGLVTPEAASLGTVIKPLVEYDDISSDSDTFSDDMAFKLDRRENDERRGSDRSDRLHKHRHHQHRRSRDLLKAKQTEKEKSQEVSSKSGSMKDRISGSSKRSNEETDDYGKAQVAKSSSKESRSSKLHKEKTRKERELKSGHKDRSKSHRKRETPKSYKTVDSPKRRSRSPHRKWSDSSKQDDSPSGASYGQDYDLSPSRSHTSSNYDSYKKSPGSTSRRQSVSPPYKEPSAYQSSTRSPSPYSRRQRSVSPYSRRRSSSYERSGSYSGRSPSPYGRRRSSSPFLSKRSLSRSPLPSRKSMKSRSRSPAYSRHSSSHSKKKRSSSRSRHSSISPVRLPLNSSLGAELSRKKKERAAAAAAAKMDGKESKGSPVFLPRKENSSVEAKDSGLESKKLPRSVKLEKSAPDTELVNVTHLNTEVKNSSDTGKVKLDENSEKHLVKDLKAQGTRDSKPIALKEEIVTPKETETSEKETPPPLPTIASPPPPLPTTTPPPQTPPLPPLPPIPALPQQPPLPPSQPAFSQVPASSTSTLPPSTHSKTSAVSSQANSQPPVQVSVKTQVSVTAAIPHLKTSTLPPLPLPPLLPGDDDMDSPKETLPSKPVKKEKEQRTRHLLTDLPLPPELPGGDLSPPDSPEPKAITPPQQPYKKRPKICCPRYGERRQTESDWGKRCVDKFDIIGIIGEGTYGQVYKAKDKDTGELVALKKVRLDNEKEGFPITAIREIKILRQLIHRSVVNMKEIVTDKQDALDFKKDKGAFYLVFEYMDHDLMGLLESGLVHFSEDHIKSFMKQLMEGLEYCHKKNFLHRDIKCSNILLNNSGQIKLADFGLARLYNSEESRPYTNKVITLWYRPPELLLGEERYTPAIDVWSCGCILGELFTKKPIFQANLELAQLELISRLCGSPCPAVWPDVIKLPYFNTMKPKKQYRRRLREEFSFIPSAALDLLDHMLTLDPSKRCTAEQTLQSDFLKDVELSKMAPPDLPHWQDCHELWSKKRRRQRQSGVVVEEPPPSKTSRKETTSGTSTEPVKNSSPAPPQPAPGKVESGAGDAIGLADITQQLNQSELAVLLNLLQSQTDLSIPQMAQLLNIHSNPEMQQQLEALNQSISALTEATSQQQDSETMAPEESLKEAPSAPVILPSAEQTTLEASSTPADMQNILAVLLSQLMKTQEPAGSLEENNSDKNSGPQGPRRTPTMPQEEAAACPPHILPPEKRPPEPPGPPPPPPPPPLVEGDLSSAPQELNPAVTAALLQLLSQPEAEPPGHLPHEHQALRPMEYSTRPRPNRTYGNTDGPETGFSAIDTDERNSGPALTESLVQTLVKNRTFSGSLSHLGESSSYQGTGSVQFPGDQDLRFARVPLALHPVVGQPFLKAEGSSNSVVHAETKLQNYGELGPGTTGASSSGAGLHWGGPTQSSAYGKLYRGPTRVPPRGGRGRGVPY
Chain of CDK12 wt/CycK (O75909 whole entry partner): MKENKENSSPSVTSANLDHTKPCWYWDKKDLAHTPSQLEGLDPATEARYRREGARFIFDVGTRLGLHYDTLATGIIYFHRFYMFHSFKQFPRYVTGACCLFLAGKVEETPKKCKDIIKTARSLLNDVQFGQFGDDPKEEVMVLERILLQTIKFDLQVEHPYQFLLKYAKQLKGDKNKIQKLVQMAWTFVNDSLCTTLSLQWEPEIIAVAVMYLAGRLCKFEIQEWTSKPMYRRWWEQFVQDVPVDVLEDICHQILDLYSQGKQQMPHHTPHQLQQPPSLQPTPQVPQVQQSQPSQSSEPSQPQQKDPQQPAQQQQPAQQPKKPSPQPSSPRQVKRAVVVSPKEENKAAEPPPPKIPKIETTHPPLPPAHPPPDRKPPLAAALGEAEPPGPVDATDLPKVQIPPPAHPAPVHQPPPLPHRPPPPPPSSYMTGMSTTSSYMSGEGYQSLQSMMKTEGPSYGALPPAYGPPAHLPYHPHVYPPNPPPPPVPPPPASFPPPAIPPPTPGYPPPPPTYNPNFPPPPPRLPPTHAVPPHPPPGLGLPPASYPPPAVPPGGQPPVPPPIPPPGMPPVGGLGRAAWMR

SMILES | IC50 (CDK12 wt/CycK) | IC50 (CDK2/CycA2) | IC50 (CDK7/CycH/MAT1)
C=CC(=O)Nc1ccc(C(=O)N2CCC[C@@H](Nc3ncc4ccccc4n3)C2)cc1 [Example 1, (R)-N-(4-(3-(quinazolin-2-ylamino)piperidine-1-carbonyl)phenyl)acrylamide] | 1000 to 10000 nM | – | –
C=CC(=O)Nc1ccc(C(=O)N2CCC[C@@H](Nc3cc4ccccc4cn3)C2)cc1 [Example 2, (R)-N-(4-(3-(isoquinolin-3-ylamino)piperidine-1-carbonyl)phenyl)acrylamide] | 1000 to 10000 nM | 30 to 100 µM | 30 to 100 µM
C=CC(=O)Nc1ccc(C(=O)N2CCC[C@@H](Nc3ncc4cc(Cl)ccc4n3)C2)cc1 [Example 3, (R)-N-(4-(3-((6-chloroquinazolin-2-yl)amino)piperidine-1-carbonyl)phenyl)acrylamide] | 1000 to 10000 nM | 30 to 100 µM | 30 to 100 µM
C=CC(=O)Nc1ccc(C(=O)N2CCC[C@@H](Nc3ncc4cc(F)ccc4n3)C2)cc1 [Example 4, (R)-N-(4-(3-((6-fluoroquinazolin-2-yl)amino)piperidine-1-carbonyl)phenyl)acrylamide] | 1000 to 10000 nM | 30 to 100 µM | 30 to 100 µM
C=CC(=O)Nc1ccc(C(=O)N2CCC[C@@H](Nc3ncc4ccc(F)cc4n3)C2)cc1 [Example 5, (R)-N-(4-(3-((7-fluoroquinazolin-2-yl)amino)piperidine-1-carbonyl)phenyl)acrylamide] | 1000 to 10000 nM | 30 to 100 µM | 30 to 100 µM
C=CC(=O)Nc1ccc(C(=O)N2CCC[C@@H](Nc3ncc4ccc(OC)cc4n3)C2)cc1 [Example 6, (R)-N-(4-(3-((7-methoxyquinazolin-2-yl)amino)piperidine-1-carbonyl)phenyl)acrylamide] | 10000 to 30000 nM | 30 to 100 µM | 30 to 100 µM
C=CC(=O)Nc1ccc(C(=O)N2CCC[C@@H](Nc3ncc4cc(OC)ccc4n3)C2)cc1 [Example 7, (R)-N-(4-(3-((6-methoxyquinazolin-2-yl)amino)piperidine-1-carbonyl)phenyl)acrylamide] | 30000 to 100000 nM | 30 to 100 µM | 30 to 100 µM
C=CC(=O)Nc1ccc(C(=O)N2CC[C@@H](Nc3ncc4ccc(C(=O)NC)cc4n3)C2)cc1 [Example 58, (R)-2-((1-(4-acrylamidobenzoyl)pyrrolidin-3-yl)amino)-N-methylquinazoline-7-carboxamide] | – | – | 0.1 to 1 µM
C=CC(=O)Nc1ccc(C(=O)N2CC[C@@H](Nc3ncc4ccccc4n3)C2)cn1 [Example 67, (R)—N-(5-(3-(quinazolin-2-ylamino)pyrrolidine-1-carbonyl)pyridin-2-yl)acrylamide] | – | – | 0.1 to 1 µM
C=CC(=O)Nc1ccc(C(=O)N2CC[C@@H](Nc3ncc4cc(F)ccc4n3)C2)cc1F [Example 69, (R)—N-(2-fluoro-4-(3-((6-fluoroquinazolin-2-yl)amino)pyrrolidine-1-carbonyl)phenyl)acrylamide] | ≤ 100 nM | 1 to 10 µM | –
C#CC(=O)Nc1ccc(C(=O)N2CC[C@@H](Nc3ncc4ccccc4n3)C2)cc1 [Example 70, (R)—N-(4-(3-(quinazolin-2-ylamino)pyrrolidine-1-carbonyl)phenyl)propiolamide] | ≤ 100 nM | 0.1 to 1 µM | –
C=CC(=O)Nc1ccc(C(=O)N2CC[C@@H](Nc3ncc4ccccc4n3)C2)cc1OC [Example 71, (R)—N-(2-methoxy-4-(3-(quinazolin-2-ylamino)pyrrolidine-1-carbonyl)phenyl)acrylamide] | ≤ 100 nM | – | –
C=CC(=O)Nc1ccc(C(=O)N2CC[C@@H](Nc3ncc4ccccc4n3)C2)c(OC)c1 [Example 73, (R)—N-(3-methoxy-4-(3-(quinazolin-2-ylamino)pyrrolidine-1-carbonyl)phenyl)acrylamide] | 100 to 1000 nM | – | –
C=CC(=O)N1CCCc2cc(C(=O)N3CC[C@@H](Nc4ncc5ccccc5n4)C3)ccc21 [Example 79, (R)-1-(6-(3-(quinazolin-2-ylamino)pyrrolidine-1-carbonyl)-3,4-dihydroquinolin-1(2H)-yl)prop-2-en-1-one] | ≤ 100 nM | 1 to 10 µM | –
